# Data taken from patent US11890291B2, “Aqueous composition with water insoluble vitamins” (Innova Agri Bio Park Private Limited, priority 2018, dated 2024).
# Tests used:
# [1] = Volume of distribution test; format: in vivo, Wistar rats; settings: oral 5 mg/kg
# Experimental: The volume of distribution (Vd) test was done to check the ability of Vitamin D3 nanogels/nanoparticles to distribute through different body fluid compartments. Apparent volume of distribution (Vd) was calculated by dividing the amount of the nanogel/nanoparticles and the standard drug administered on the plasma concentration as shown in Table 11.
# in vivo = settings: Wistar, rat, po, 5 mg/kg
# Experimental: Test substance (Vitamin D3 fortified aqueous composition) and standard drug cholecalciferol (Vitamin D3) was administered by oral route at the dose of 5 mg/kg body weight to Rats as shown in Table 8.
# After oral administration of the test substance and the standard drug, 500 μL of blood sample was collected in EDTA containing tubes at different time intervals of 0, ½, 1, 2, 4, 8, 12, 24 and 48 hours.
# The plasma was separated from blood samples for bioanalysis and pharmacokinetic profiling was performed using LC-MS/MS method for the quantification of vitamin D3 in Rat plasma.
# The area under the plasma drug concentration-time curve (AUC) was calculated which reflects the actual body exposure to drug after administration of a dose of the drug.
compound,measurement,setting,value
"C=C1CC[C@H](O)C/C1=C/C=C1\CCC[C@]2(C)[C@@H]([C@H](C)CCCC(C)C)CC[C@@H]12 [Standard vitamin D3, cholecalciferol]",Volume of distribution (Vd),[1]; 0 Hr,333.3 ± 333.3 L/kg
same,Volume of distribution (Vd),[1]; 0.5 Hr,548.8 ± 285.8 L/kg
same,Volume of distribution (Vd),[1]; 1 Hr,632.7 ± 339.6 L/kg
same,Volume of distribution (Vd),[1]; 2 Hr,465.9 ± 129.3 L/kg
same,Volume of distribution (Vd),[1]; 4 Hr,96.22 ± 25.47 L/kg
same,Volume of distribution (Vd),[1]; 8 Hr,20.25 ± 4.58 L/kg
same,Volume of distribution (Vd),[1]; 12 Hr,6.73 ± 0.89 L/kg
same,Volume of distribution (Vd),[1]; 24 Hr,4.98 ± 0.67 L/kg
same,Volume of distribution (Vd),[1]; 48 Hr,6.74 ± 0.31 L/kg
same,AUC at 0 h,in vivo,20 ng·h/mL
same,AUC at 0.5 h,in vivo,43.3 ng·h/mL
same,AUC at 1 h,in vivo,41.7 ng·h/mL
same,AUC at 2 h,in vivo,106 ng·h/mL
same,AUC at 4 h,in vivo,289 ng·h/mL
same,AUC at 8 h,in vivo,1180 ng·h/mL
same,AUC at 12 h,in vivo,3010 ng·h/mL
same,AUC at 24 h,in vivo,4060 ng·h/mL
same,AUC at 48 h,in vivo,2910 ng·h/mL
same,AUC(0-t),in vivo,11700 ng·h/mL
same,concentration at 0 h,in vivo,1.66 ± 1.66 ng/mL
same,concentration at 0.5 h,in vivo,4.16 ± 2.17 ng/mL
same,concentration at 1 h,in vivo,3.7 ± 1.98 ng/mL
same,concentration at 2 h,in vivo,13.4 ± 4.87 ng/mL
same,concentration at 4 h,in vivo,68.8 ± 22.5 ng/mL
same,concentration at 8 h,in vivo,284 ± 82 ng/mL
same,concentration at 12 h,in vivo,767 ± 92.5 ng/mL
same,concentration at 24 h,in vivo,1040 ± 123 ng/mL
same,concentration at 48 h,in vivo,744 ± 33.6 ng/mL
